# Assays:
# [1] = biological target: T1, Neuropeptide Y receptor type 1 (Homo sapiens, UniProt P25929)
# T1 sequence (P25929 whole entry): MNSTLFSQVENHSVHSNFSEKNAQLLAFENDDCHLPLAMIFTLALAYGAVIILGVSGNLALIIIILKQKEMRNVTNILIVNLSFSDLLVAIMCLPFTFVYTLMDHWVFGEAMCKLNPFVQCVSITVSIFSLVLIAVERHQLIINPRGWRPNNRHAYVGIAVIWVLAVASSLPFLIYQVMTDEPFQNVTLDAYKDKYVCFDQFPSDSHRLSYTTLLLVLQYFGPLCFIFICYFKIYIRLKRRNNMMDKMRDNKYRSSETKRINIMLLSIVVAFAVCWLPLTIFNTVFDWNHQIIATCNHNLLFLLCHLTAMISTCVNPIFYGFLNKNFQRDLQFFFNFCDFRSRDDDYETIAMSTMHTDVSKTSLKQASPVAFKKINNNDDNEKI
# [2] = biological target: T2, Amine oxidase [flavin-containing] A (Homo sapiens, UniProt P21397); type: functional
# T2 sequence (P21397 whole entry): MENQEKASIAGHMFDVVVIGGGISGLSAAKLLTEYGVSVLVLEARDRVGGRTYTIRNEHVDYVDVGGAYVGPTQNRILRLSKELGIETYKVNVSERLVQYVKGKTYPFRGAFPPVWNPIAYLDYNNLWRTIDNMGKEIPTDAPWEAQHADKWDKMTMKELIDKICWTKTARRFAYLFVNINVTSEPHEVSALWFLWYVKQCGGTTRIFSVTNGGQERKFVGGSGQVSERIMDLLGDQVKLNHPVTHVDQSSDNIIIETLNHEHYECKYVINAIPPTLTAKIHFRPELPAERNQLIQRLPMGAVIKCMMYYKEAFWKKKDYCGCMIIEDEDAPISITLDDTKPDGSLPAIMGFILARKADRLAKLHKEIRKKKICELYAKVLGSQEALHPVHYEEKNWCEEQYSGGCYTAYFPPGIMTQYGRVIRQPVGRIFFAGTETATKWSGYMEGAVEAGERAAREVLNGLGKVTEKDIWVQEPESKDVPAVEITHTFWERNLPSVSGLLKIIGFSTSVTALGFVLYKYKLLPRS
# Motilin receptor = Motilin receptor (Homo sapiens, UniProt O43193)
# [3] = biological target: T3, Muscarinic acetylcholine receptor M2 (Homo sapiens, UniProt P08172); type: functional, cell-based
# T3 sequence (P08172 whole entry): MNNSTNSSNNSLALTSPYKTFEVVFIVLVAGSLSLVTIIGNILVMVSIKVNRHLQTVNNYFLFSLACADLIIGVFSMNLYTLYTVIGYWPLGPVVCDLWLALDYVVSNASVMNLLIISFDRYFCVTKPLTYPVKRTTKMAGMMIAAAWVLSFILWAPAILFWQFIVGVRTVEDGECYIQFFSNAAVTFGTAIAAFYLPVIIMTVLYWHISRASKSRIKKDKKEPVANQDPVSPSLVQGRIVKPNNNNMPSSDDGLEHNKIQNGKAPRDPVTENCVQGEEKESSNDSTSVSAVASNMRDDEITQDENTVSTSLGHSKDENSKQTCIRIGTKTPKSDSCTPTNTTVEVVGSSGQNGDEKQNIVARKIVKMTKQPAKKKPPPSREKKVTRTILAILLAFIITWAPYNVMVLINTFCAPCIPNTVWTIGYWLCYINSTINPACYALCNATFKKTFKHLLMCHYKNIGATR
# Cannabinoid receptor 1 = Cannabinoid receptor 1 (Homo sapiens, UniProt P21554); type: functional, cell-based
# [4] = biological target: T4, Cholecystokinin receptor type A (Homo sapiens, UniProt P32238)
# T4 sequence (P32238 whole entry): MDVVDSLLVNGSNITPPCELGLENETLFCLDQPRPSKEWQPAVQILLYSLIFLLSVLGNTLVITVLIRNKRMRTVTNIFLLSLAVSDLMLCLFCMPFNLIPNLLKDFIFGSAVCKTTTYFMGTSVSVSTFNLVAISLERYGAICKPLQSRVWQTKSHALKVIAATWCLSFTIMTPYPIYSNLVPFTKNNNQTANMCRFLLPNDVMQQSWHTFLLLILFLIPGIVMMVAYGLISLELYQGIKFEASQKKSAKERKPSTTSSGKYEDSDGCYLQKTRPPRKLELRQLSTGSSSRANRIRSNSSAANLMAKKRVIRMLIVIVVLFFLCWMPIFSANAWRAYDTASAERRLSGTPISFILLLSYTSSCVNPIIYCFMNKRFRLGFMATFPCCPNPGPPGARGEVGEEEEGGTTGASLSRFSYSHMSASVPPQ
# [5] = biological target: 5-hydroxytryptamine receptor 2B (Homo sapiens, UniProt P41595); type: functional, cell-based
# [6] = biological target: Beta-1 adrenergic receptor (Homo sapiens, UniProt P08588); type: functional
# Further: assay procedure not described here.
# Chain of Motilin receptor (O43193 whole entry): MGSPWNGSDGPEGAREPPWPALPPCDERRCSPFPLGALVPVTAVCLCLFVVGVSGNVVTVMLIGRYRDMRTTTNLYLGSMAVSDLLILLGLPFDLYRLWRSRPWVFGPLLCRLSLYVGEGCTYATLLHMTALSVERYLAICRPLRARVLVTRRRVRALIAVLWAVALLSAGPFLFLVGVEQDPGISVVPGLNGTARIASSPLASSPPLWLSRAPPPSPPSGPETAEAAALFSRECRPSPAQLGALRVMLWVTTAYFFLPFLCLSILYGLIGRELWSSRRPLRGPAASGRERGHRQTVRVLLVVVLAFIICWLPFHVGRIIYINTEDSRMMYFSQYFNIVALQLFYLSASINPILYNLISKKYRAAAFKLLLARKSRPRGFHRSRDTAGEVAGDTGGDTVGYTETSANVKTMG
# Chain of Cannabinoid receptor 1 (P21554 whole entry): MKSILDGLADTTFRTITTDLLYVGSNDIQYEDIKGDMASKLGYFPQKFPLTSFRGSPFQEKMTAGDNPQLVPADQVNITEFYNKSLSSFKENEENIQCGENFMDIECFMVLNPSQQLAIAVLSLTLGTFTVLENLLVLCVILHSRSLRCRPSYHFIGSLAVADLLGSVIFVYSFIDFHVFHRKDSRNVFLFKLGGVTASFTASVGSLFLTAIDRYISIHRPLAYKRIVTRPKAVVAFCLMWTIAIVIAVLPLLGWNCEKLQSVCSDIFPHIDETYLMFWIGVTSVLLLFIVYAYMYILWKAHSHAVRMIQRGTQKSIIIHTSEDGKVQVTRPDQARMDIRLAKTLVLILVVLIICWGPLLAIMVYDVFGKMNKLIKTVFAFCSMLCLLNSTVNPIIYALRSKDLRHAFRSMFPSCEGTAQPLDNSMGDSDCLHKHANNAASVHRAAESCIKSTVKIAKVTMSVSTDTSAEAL
# Chain of 5-hydroxytryptamine receptor 2B (P41595 whole entry): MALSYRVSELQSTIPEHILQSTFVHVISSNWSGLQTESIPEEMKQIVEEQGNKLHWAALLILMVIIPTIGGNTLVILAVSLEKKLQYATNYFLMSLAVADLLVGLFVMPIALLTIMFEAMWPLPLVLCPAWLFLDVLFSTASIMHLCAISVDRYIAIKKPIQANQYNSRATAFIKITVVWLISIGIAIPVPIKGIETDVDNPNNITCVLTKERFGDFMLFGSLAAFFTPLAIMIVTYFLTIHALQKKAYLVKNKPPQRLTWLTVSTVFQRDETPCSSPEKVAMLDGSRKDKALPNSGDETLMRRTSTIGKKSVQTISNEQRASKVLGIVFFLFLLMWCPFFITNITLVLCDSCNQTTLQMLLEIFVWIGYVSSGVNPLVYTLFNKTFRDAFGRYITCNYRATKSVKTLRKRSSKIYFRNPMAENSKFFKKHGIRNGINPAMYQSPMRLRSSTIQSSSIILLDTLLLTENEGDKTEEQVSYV
# Chain of Beta-1 adrenergic receptor (P08588 whole entry): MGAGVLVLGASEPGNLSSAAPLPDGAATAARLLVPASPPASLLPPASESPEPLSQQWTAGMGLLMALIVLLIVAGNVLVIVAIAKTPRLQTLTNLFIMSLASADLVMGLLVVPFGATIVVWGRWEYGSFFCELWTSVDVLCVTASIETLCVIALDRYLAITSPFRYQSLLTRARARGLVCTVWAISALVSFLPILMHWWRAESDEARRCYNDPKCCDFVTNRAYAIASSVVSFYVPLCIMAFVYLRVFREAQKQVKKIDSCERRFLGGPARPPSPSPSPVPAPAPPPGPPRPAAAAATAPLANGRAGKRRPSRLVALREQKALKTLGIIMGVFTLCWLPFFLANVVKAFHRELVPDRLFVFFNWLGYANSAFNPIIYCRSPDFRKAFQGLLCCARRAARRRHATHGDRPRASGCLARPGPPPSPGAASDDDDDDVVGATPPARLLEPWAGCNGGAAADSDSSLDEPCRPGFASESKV
Compound,AC50 [1] [µM],AC50 [2] [µM],AC50 (Motilin receptor) [µM],AC50 [3] [µM],AC50 (Cannabinoid receptor 1) [µM],AC50 [4] [µM],AC50 [5] [µM],AC50 [6] [µM]
O=C1CN=C(c2ccccc2Cl)c2cc([N+](=O)[O-])ccc2N1 [CLONAZEPAM],> 30,> 10,> 10,> 10,> 30,> 30,> 10,> 10
COc1ccc2c3c1O[C@H]1C(=O)CC[C@H]4[C@@H](C2)N(C)CC[C@]314 [HYDROCODONE],> 30,> 10,> 10,> 10,,> 30,> 10,> 10
CN1C(=O)CN=C(c2ccccc2F)c2cc([N+](=O)[O-])ccc21 [FLUNITRAZEPAM],> 30,> 10,> 10,> 10,> 30,,> 10,> 10
CCOC(=O)O[C@]1(C(=O)COC(=O)CC)CC[C@H]2[C@@H]3CCC4=CC(=O)C=C[C@]4(C)[C@H]3[C@@H](O)C[C@@]21C [PREDNICARBATE],> 10,> 10,> 10,> 10,,> 10,> 10,> 10
CC1NCCOC1c1ccccc1 (stereo unspecified) [PHENMETRAZINE],> 30,> 10,> 10,> 10,> 30,> 30,> 10,> 10
TEPRENONE,,> 10,> 10,> 10,> 30,> 30,> 10,> 30
SITOSTEROLS,> 30,> 30,> 30,> 30,> 30,> 30,> 30,> 30
CC(=O)[C@@]1(O)CC[C@H]2[C@@H]3C[C@H](C)C4=CC(=O)C=C[C@]4(C)[C@@]3(F)[C@@H](O)C[C@@]21C [FLUOROMETHOLONE],> 10,> 10,> 10,> 10,> 30,> 10,> 10,> 10
CC(C)(N)Cc1ccccc1 [PHENTERMINE],> 30,> 10,> 10,> 10,> 30,> 30,> 10,> 10
CN1C2CCCC1CC(NC(=O)c1nn(C)c3ccccc13)C2 (stereo unspecified) [GRANISETRON],> 30,> 10,> 10,> 10,> 30,> 30,> 10,> 10
OCCN(CCO)c1nc(N2CCCCC2)c2nc(N(CCO)CCO)nc(N3CCCCC3)c2n1 [DIPYRIDAMOLE],> 30,> 30,,2,,> 30,15,
N=C(N)NC(=O)Cc1c(Cl)cccc1Cl [GUANFACINE],> 30,6.88,> 10,> 30,> 30,> 30,0.358,> 10
CCOC(=O)C1=C(C)NC(C)=C(C(=O)OC)C1c1cccc(Cl)c1Cl (stereo unspecified) [FELODIPINE],> 30,> 10,> 10,> 10,> 30,> 30,> 10,> 10
CC(=O)Oc1cccc2c1C(=O)c1c(OC(C)=O)cc(C(=O)O)cc1C2=O [DIACEREIN],> 30,> 30,> 30,12,> 30,> 30,> 10,> 30
CC(=O)OCC(=O)[C@@]1(O)CC[C@H]2[C@@H]3CCC4=CC(=O)CC[C@]4(C)[C@@]3(F)[C@@H](O)C[C@@]21C [FLUDROCORTISONE ACETATE],> 30,,> 30,> 30,> 30,> 30,> 30,> 30
CCC(=O)[C@@]1(C)[C@H](C)C[C@H]2[C@@H]3CCC4=CC(=O)C=C[C@]4(C)[C@H]3[C@@H](O)C[C@@]21C [RIMEXOLONE],> 10,> 10,> 10,> 10,,> 10,> 10,> 10
Nc1cc(N2CCCCC2)nc(N)[n+]1[O-] [MINOXIDIL],,> 10,> 10,> 10,,> 30,> 10,> 30
O=C(O[C@H]1C[N+]2(CCCOc3ccccc3)CCC1CC2)C(O)(c1cccs1)c1cccs1 [ACLIDINIUM BROMIDE],> 30,> 10,> 10,,,> 30,,> 10
NS(=O)(=O)c1ccc(N2CCCCS2(=O)=O)cc1,> 30,> 30,> 30,> 30,> 30,> 30,> 30,> 30
Cc1ccc(-c2ncc(Cl)cc2-c2ccc(S(C)(=O)=O)cc2)cn1 [ETORICOXIB],> 10,> 10,> 10,> 10,> 30,> 10,> 10,> 10
Cc1nnc2n1-c1ccc(Cl)cc1C(c1ccccc1)=NC2 [ALPRAZOLAM],> 30,> 10,> 10,> 10,> 30,> 30,> 10,> 10
CC1Cc2ccccc2N1NC(=O)c1ccc(Cl)c(S(N)(=O)=O)c1 (stereo unspecified) [INDAPAMIDE],> 30,> 10,> 10,> 10,> 30,> 30,> 10,> 10
CC(NC(C)(C)C)C(=O)c1cccc(Cl)c1 (stereo unspecified) [BUPROPION],> 30,> 10,> 10,> 10,> 30,> 30,> 10,> 10
CCN(CC)CC(=O)Nc1c(C)cccc1C [LIDOCAINE],> 30,,> 10,,,> 30,,
Cc1cnc(Nc2ccc(OCCN3CCCC3)cc2)nc1Nc1cccc(S(=O)(=O)NC(C)(C)C)c1 [FEDRATINIB],> 30,> 10,14,> 10,,> 30,> 10,> 10
O=C(O)CCCC[C@@H]1SC[C@@H]2NC(=O)N[C@@H]21 [BIOTIN],> 10,> 10,> 10,> 10,,> 10,> 10,

# Source: ChEMBL document CHEMBL5291721, “A preclinical secondary pharmacology resource illuminates target-adverse drug reaction associations of marketed drugs” (Nat Commun, 2023)
